Reference: patent publication US20230099344A1, “COMPOUNDS AND METHODS FOR THE TARGETED DEGRADATION OF IRAK-4” (Arvinas Operations, Inc., priority 2021, published 2023)

What was measured:
Assay type in all cases: cell-based
IRAK-4 = target: T1, IRAK-4 (Homo sapiens, UniProt Q9NWZ3); experiment: IRAK-4 ELISA, PBMC degradation; parameters: endogenous in cells; host or cells: PBMC; conditions: treated overnight
T1 sequence (Q9NWZ3 1-460): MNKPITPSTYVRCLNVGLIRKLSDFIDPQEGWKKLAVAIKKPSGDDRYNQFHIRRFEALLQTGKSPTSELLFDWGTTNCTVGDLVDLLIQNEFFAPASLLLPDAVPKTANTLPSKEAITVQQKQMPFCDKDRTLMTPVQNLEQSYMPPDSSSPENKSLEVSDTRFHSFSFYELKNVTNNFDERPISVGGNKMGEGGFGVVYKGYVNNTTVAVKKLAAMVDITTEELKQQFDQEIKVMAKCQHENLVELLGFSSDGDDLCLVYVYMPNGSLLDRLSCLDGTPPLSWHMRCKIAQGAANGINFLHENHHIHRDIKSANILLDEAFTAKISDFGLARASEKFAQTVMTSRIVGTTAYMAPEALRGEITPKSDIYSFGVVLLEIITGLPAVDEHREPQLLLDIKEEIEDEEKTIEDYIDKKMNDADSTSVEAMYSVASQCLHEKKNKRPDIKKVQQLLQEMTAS
Summary of the method: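 IRAK-4 levels measured by matched-antibody-pair ELISA on lysates after overnight compound exposure. Cells seeded same day: PBMC at 2×10^6/ml, OCI-Ly10 at 1×10^6/ml.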

IL6 [1] = experiment: LPS stimulated IL6 inhibition assay in PBMC; conditions: human PBMCs, LPS stimulation, compound overnight, IL6 by MSD after 24 hrs; for Dmax: read-out: LPS Stim IL6 inhibition Dmax; for IC50: read-out: LPS stim IL6 inhibition IC50
Procedure: (§1) IL-1β, LPS, or R848 Stimulated IL6 Inhibition and IL-1β Stimulated IL8 Inhibition Assay
(§2) Human PBMC cells were seeded at 2.0×10^6 cells/mL, treated with compound overnight, and dosed with the EC50 concentration of each stimulant (either IL-1B. LPS, or R848) was determined for each donor. After 24 hrs, media was collected and analyzed by MSD for IL6 and/or IL8 levels.

IL6 [2] = experiment: R848 stimulated IL6 inhibition assay in PBMC; conditions: human PBMCs, R848 stimulation, compound overnight, IL6 by MSD after 24 hrs; for Dmax: Homo sapiens, 24 h, read-out: R848 stim IL6 inhibition Dmax; for IC50: read-out: R848 stim IL6 inhibition IC50
Procedure: as §1, §2

Row | DC50 (IRAK-4) [nM] | Dmax (IRAK-4) [%] | PBMC DC90 (IRAK-4) | IC50 (IL6 [1]; Homo sapiens, PBMC, 24 h) [nM] | IC50 (IL6 [2]; PBMC) [nM] | PBMC Dmax (IRAK-4) | IC50 (IL6 [1]) [nM] | IC50 (IL6 [2]) [nM] | SMILES | Dmax (IL6 [1]; Homo sapiens, PBMC, 24 h) [%] | Dmax (IL6 [2]; PBMC) [%] | LPS Stim IL6 inhibition Dmax (IL6 [1]) | R848 stim IL6 inhibition Dmax (IL6 [2])
1 | 1 to 5 | 80 to 90 | A (A represents a DC90 value <10.0 nM) | 10 to 50 | 10 to 50 | – | – | – | O=C1CCC(N2Cc3cc(F)c(N4CC(F)(CN5CCC(n6cc7cc(NC(=O)c8cnn9cccnc89)c(OCC8CC8)cc7n6)CC5)C4)cc3C2=O)C(=O)N1 (centres unmarked) [Example 269, N-[6-(cyclopropylmethoxy)-2-[1-({1-[2-(2,6-dioxopiperidin-3-yl)-6-fluoro-3-oxo-2,3-dihydro-1H-isoindol-5-yl]-3-fluoroazetidin-3-yl}methyl)piperidin-4-yl]-2H-indazol-5-yl]pyrazolo[1,5-a]pyrimidine-3-carboxamide] | 80 to 90 | ≥ 90 | – | –
2 | < 1 | – | A (A represents a DC90 value <10.0 nM) | – | – | A (A represents a Dmax value ≥90) | < 10 | < 10 | O=C1CCC(N2Cc3cc(N4CCC(CN5CCC(n6cc7cc(NC(=O)c8cnn9cccnc89)c(OCC(F)F)cc7n6)CC5)CC4)ccc3C2=O)C(=O)N1 (centres unmarked) [Example 156] | – | – | C (C represents a Ymax value ≥70 and <80) | A (A represents a Ymax value ≥90)
3 | 1 to 5 | ≥ 90 | A (A represents a DC90 value <10.0 nM) | 10 to 50 | 10 to 50 | – | – | – | O=C1CCC(NC(=O)c2ccc(O[C@H]3C[C@H](N[C@H]4CC[C@H](n5cc6cc(NC(=O)c7cnn8cccnc78)c(OCC7CC7)cc6n5)CC4)C3)cc2F)C(=O)N1 (some centres unmarked) [Example 376] | 70 to 80 | ≥ 90 | – | –
4 | ≥ 10 | 70 to 80 | D (D represents a DC90 value ≥50 nM) | ≥ 100 | ≥ 100 | – | – | – | O=C1CCC(NC(=O)c2cc(N3CC(CN4CCC(n5cc6cc(NC(=O)c7cnn8cccnc78)c(OCC7CC7)cc6n5)CC4)C3)ccc2F)C(=O)N1 (centres unmarked) [Example 306] | 70 to 80 | ≥ 90 | – | –

The next lines start with the molecule.

Row | SMILES | DC50 (IRAK-4) [nM] | Dmax (IRAK-4) [%] | PBMC DC90 (IRAK-4) | IC50 (IL6 [1]; Homo sapiens, PBMC, 24 h) [nM] | IC50 (IL6 [2]; PBMC) [nM] | PBMC Dmax (IRAK-4) | IC50 (IL6 [1]) [nM] | IC50 (IL6 [2]) [nM] | Dmax (IL6 [1]; Homo sapiens, PBMC, 24 h) [%] | Dmax (IL6 [2]; PBMC) [%] | LPS Stim IL6 inhibition Dmax (IL6 [1]) | R848 stim IL6 inhibition Dmax (IL6 [2])
5 | COc1c(N2CC(F)(CN3CCC(n4cc5cc(NC(=O)c6cnn7cccnc67)c(OCC6CC6)cc5n4)CC3)C2)ccc2c1C(=O)N(C1CCC(=O)NC1=O)C2=O (centres unmarked) [Example 246] | 5 to 10 | < 70 | B (B represents a DC90 value ≥10.0 nM and <25.0 nM) | < 10 | < 10 | – | – | – | 70 to 80 | ≥ 90 | – | –
6 | CC(C)Oc1cc2c(cc1NC(=O)c1cnn3cc(Cl)cnc13)CN(C1CCN(CC3CCN(c4ccc5c(c4)C(=O)N(C4CCC(=O)NC4=O)C5=O)CC3)CC1)C2=O (centres unmarked) [Example 43] | 1 to 5 | ≥ 90 | B (B represents a DC90 value ≥10.0 nM and <25.0 nM) | < 10 | 10 to 50 | – | – | – | < 70 | 80 to 90 | – | –
7 | O=C1CCC(N2C(=O)c3ccc(N4CC(F)(CN5CCC(n6cc7cc(NC(=O)c8cnn9cc(Cl)cnc89)c(OCC8CC8)cc7n6)CC5)C4)cc3C2=O)C(=O)N1 (centres unmarked) [Example 255] | ≥ 10 | ≥ 90 | D (D represents a DC90 value ≥50 nM) | 50 to 100 | 50 to 100 | – | – | – | 70 to 80 | ≥ 90 | – | –
8 | CC(C)Oc1cc2c(cc1NC(=O)c1cnn3cccnc13)CN(C1CCN(CC3(F)CN(c4ccc5c(c4F)CN(C4CCC(=O)NC4=O)C5=O)C3)CC1)C2=O (centres unmarked) [Example 107] | 1 to 5 | 70 to 80 | A (A represents a DC90 value <10.0 nM) | 10 to 50 | 50 to 100 | – | – | – | ≥ 90 | ≥ 90 | – | –
9 | CC(C)Oc1cc2c(cc1NC(=O)c1cnn3cccnc13)CN(C1CCN(C(C)(C)C3CCN(c4ccc5c(c4)CN(C4CCC(=O)NC4=O)C5=O)CC3)CC1)C2=O (centres unmarked) [Example 111] | < 1 | 80 to 90 | A (A represents a DC90 value <10.0 nM) | 10 to 50 | 10 to 50 | – | – | – | ≥ 90 | ≥ 90 | – | –
10 | CC(C)Oc1cc2c(cc1NC(=O)c1cnn3cccnc13)CN([C@H]1CC[C@H](N(C)C3CN(c4ccc5c(c4F)CN(C4CCC(=O)NC4=O)C5=O)C3)CC1)C2=O (some centres unmarked) [Example 364] | 1 to 5 | ≥ 90 | A (A represents a DC90 value <10.0 nM) | 50 to 100 | < 10 | – | – | – | < 70 | ≥ 90 | – | –
11 | CC(C)Oc1cc2c(cc1NC(=O)c1cnn3cccnc13)CN([C@H]1CC[C@H](CN3CCN(c4ccc5c(c4)C(=O)N(C4CCC(=O)NC4=O)C5=O)CC3)CC1)C2=O (some centres unmarked) [Example 431] | 1 to 5 | ≥ 90 | A (A represents a DC90 value <10.0 nM) | 10 to 50 | 10 to 50 | – | – | – | 70 to 80 | ≥ 90 | – | –
12 | CC(C)Oc1cc2c(cc1NC(=O)c1cnn3cccnc13)CN([C@H]1CC[C@H](N3CC4(CN(c5ccc6c(c5)C(=O)N(C5CCC(=O)NC5=O)C6=O)C4)C3)CC1)C2=O (some centres unmarked) [Example 366] | 1 to 5 | ≥ 90 | A (A represents a DC90 value <10.0 nM) | < 10 | < 10 | – | – | – | 80 to 90 | ≥ 90 | – | –
13 | CN(C1CN(c2ccc3c(c2)CN(C2CCC(=O)NC2=O)C3=O)C1)[C@H]1CC[C@H](n2cc3cc(NC(=O)c4cnn5cccnc45)c(OCC(F)F)cc3n2)CC1 (some centres unmarked) [Example 363] | < 1 | ≥ 90 | A (A represents a DC90 value <10.0 nM) | 10 to 50 | 10 to 50 | – | – | – | 70 to 80 | ≥ 90 | – | –
14 | CN(C1CCN(c2ccc3c(c2)C(=O)N(C2CCC(=O)NC2=O)C3=O)CC1)[C@H]1CC[C@H](n2cc3cc(NC(=O)c4cnn5cccnc45)c(OCC(F)F)cc3n2)CC1 (some centres unmarked) [Example 358] | < 1 | < 70 | A (A represents a DC90 value <10.0 nM) | < 10 | < 10 | – | – | – | 70 to 80 | ≥ 90 | – | –
15 | O=C1CCC(N2C(=O)c3ccc(N4CCC(CN5CCC(N6Cc7cc(NC(=O)c8cnn9cccnc89)c(N8CCN(C9CC(F)(F)C9)CC8)cc7C6=O)CC5)CC4)cc3C2=O)C(=O)N1 (centres unmarked) [Example 53] | 1 to 5 | ≥ 90 | B (B represents a DC90 value ≥10.0 nM and <25.0 nM) | 50 to 100 | 10 to 50 | – | – | – | < 70 | 70 to 80 | – | –
16 | O=C1CCC(N2C(=O)c3ccc(N4CC[C@@H](N5CCC(n6cc7cc(NC(=O)c8cnn9cccnc89)c(OCC8CC8)cc7n6)CC5)C4)cc3C2=O)C(=O)N1 (some centres unmarked) [Example 224] | 1 to 5 | 80 to 90 | B (B represents a DC90 value ≥10.0 nM and <25.0 nM) | 10 to 50 | 10 to 50 | – | – | – | 80 to 90 | ≥ 90 | – | –
17 | O=C1CCC(N2Cc3cc(N4CC(F)(CN5CCC(N6Cc7cc(NC(=O)c8cnn9cccnc89)c(N8CCC(N9CCC9)CC8)cc7C6=O)CC5)C4)ccc3C2=O)C(=O)N1 (centres unmarked) [Example 117] | 1 to 5 | ≥ 90 | B (B represents a DC90 value ≥10.0 nM and <25.0 nM) | 10 to 50 | 10 to 50 | – | – | – | 70 to 80 | 80 to 90 | – | –
18 | O=C1CCC(N2Cc3c(ccc(N4CC(F)(CN5CCC(n6cc7cc(NC(=O)c8cnn9cccnc89)c(OCC8CC8)cc7n6)CC5)C4)c3F)C2=O)C(=O)N1 (centres unmarked) [Example 250] | 1 to 5 | 80 to 90 | B (B represents a DC90 value ≥10.0 nM and <25.0 nM) | ≥ 100 | 10 to 50 | – | – | – | < 70 | 80 to 90 | – | –
19 | O=C1CC[C@@H](N2C(=O)c3ccc(N4CC(F)(CN5CCC(n6cc7cc(NC(=O)c8cnn9cccnc89)c(OCC8CC8)cc7n6)CC5)C4)cc3C2=O)C(=O)N1 [Example 253] | 1 to 5 | ≥ 90 | B (B represents a DC90 value ≥10.0 nM and <25.0 nM) | 10 to 50 | 10 to 50 | – | – | – | < 70 | ≥ 90 | – | –
20 | CC(C)Oc1cc2c(cc1NC(=O)c1cnn3cccnc13)CN(C1CCN(C(C)(C)C3CN(c4ccc(F)c(C(=O)NC5CCC(=O)NC5=O)c4)C3)CC1)C2=O (centres unmarked) [Example 311] | 5 to 10 | 80 to 90 | D (D represents a DC90 value ≥50 nM) | ≥ 100 | 10 to 50 | – | – | – | 70 to 80 | ≥ 90 | – | –
